Results on 1 compound are retold here after the NIST ThermoML archive (doi:10.1021/acs.jced.6b00334).

± gives the expanded uncertainty stated by the source.

The nature of data set [1]: Solid-liquid equilibrium temperature. The following applies: 101 kPa; Crystal; DTA.
Data set [2] can be described thus: Molar enthalpy of transition or fusion. The following applies: Crystal; DSC.

In the case of `CCc1ccc2c(c1)C(=O)c1ccccc1C2=O` [2-ethyl-9,10-anthracenedione], the Solid-liquid equilibrium temperature in data set [1] turned out to be 384.15 ± 0.25 K. Besides, the “Molar enthalpy of transition or fusion” value in data set [2] worked out at 4.49 ± 1.2 kcal/mol.
